Test results reported in US12544395B2, “Combination compositions comprising a beta-lactamase inhibitor and uses thereof” (priority 2018, dated 2026).

Experiments:
Assay type in all cases: cell-based
K. pneumoniae 115468 = assay: Broth microdilution MIC (strain enzymes: TEM-1); details: Klebsiella pneumoniae, 115468; alone; read-out: MIC of cefixime (CFM)
K. pneumoniae 170375 = assay: Broth microdilution MIC (strain enzymes: SHV-12, CTX-M15 and TEM-1); details: Klebsiella pneumoniae, 170375; alone; read-out: MIC of cefixime (CFM)
K. pneumoniae ESBL 7 #2 = assay: Broth microdilution MIC (strain enzymes: SHV-12, CTX-M15, TEM-1); details: Klebsiella pneumoniae; alone; read-out: MIC of cefixime (CFM)
E. coli ESBL 4 = assay: Broth microdilution MIC (strain enzymes: CTX-M15, TEM-1); details: Escherichia coli, ESBL4; alone; read-out: MIC of cefixime (CFM)
E. coli SI-AIRT-4 = assay: Broth microdilution MIC (strain enzymes: TEM-1); details: Escherichia coli, SIAIRT4; alone; read-out: MIC of cefixime (CFM)
E. coli ESBL 2 = assay: Broth microdilution MIC (strain enzymes: TEM-1); details: Escherichia coli, ESBL2; alone; read-out: MIC of cefixime (CFM)
K. pneumoniae ESBL 8 #2 = assay: Broth microdilution MIC (strain enzymes: SHV-12, TEM-1); details: Klebsiella pneumoniae; alone; read-out: MIC of cefixime (CFM)
K. pneumoniae KP 4 = assay: Broth microdilution MIC (strain enzymes: SHV-2a, SHV-5, TEM-1); details: Klebsiella pneumoniae, KP4; alone; read-out: MIC of cefixime (CFM)
K. pneumoniae 329633 = assay: Broth microdilution MIC (strain enzymes: SHV-5, TEM-1); details: Klebsiella pneumoniae, 329633; alone; read-out: MIC of cefixime (CFM)
E. coli SI-M004 = assay: Broth microdilution MIC (strain enzymes: SHV-2, GES-12); details: Escherichia coli, SIM004; alone; read-out: MIC of cefixime (CFM)
E. coli BAS 1 = assay: Broth microdilution MIC (strain enzymes: none detected); details: Escherichia coli, BAS1; alone; read-out: MIC of cefixime (CFM)
E. coli SI-LP377 = assay: microbe, parasite or virus in culture; details: Escherichia coli, SILP377, read-out: MIC of cefixime (CFM)
E. coli Si-FDL-GES = assay: microbe, parasite or virus in culture; details: Escherichia coli, read-out: MIC of cefixime (CFM)
E. coli 3174 = assay: Broth microdilution MIC (strain enzymes: TEM-1, CTXM-15); details: Escherichia coli, 3174; alone; read-out: MIC of cefixime (CFM)
K. pneumoniae ESBL 10 = assay: Broth microdilution MIC (strain enzymes: SHV-12, TEM-1); details: Klebsiella pneumoniae, ESBL10; alone; read-out: MIC of cefixime (CFM)
K. pneumoniae BAA 1705 = assay: Broth microdilution MIC (strain KPC-producing); details: Klebsiella pneumoniae, BAA1705; alone; read-out: MIC of cefixime (CFM)
E. coli 1924 = assay: Broth microdilution MIC (strain enzymes: TEM-12); details: Escherichia coli, 1924; alone; read-out: MIC of cefixime (CFM)
K. pneumoniae KPN 508 = assay: Broth microdilution MIC (strain enzymes: SHV-7, TEM-1); details: Klebsiella pneumoniae, KPN508; alone; read-out: MIC of cefixime (CFM)
E. coli 2806 = assay: Broth microdilution MIC (strain enzymes: SHV-12, TEM-1); details: Escherichia coli, 2806; alone; read-out: MIC of cefixime (CFM)
[1] = test system: panel of ESBL-producing Enterobacteriaceae (40 strains); assay: Broth microdilution MIC50/MIC90 summary over the panel
E. coli ESBL 5 = assay: Broth microdilution MIC (strain enzymes: CTX-M15, TEM-1); details: Escherichia coli, ESBL5; alone; read-out: MIC of cefixime (CFM)
K. oxytoca 169219 = assay: Broth microdilution MIC (strain enzymes: TEM-1, CTXM-15); details: Klebsiella oxytoca, 169219; alone; read-out: MIC of cefixime (CFM)
K. pneumoniae ESBL 8 #1 = assay: Broth microdilution MIC (strain enzymes: TEM-1, SHV-12); details: Klebsiella pneumoniae; alone; read-out: MIC of cefixime (CFM)
K. oxytoca 496 #2 = assay: Broth microdilution MIC (strain enzymes: SHV-105, TEM-1); details: Klebsiella oxytoca; alone; read-out: MIC of cefixime (CFM)
K. pneumoniae 11/23 LF#2 = assay: microbe, parasite or virus in culture; details: Klebsiella pneumoniae, read-out: MIC of cefixime (CFM)
K. oxytoca 176877 = assay: Broth microdilution MIC (strain enzymes: SHV-105); details: Klebsiella oxytoca, 176877; alone; read-out: MIC of cefixime (CFM)
K. pneumoniae 153239 = assay: Broth microdilution MIC (strain enzymes: SHV-11, TEM-1); details: Klebsiella pneumoniae, 153239; alone; read-out: MIC of cefixime (CFM)
K. pneumoniae 319478 = assay: Broth microdilution MIC (strain enzymes: SHV-12, CTX-M3 and TEM-1); details: Klebsiella pneumoniae, 319478; alone; read-out: MIC of cefixime (CFM)
E. coli SI-PBLII = assay: Broth microdilution MIC (strain enzymes: CTX-M2, TEM-1); details: Escherichia coli; alone; read-out: MIC of cefixime (CFM)
E. coli 3327 = assay: Broth microdilution MIC (strain enzymes: TEM-1, SHV-12); details: Escherichia coli, 3327; alone; read-out: MIC of cefixime (CFM)
E. coli 25922 = assay: Broth microdilution MIC (strain enzymes: None detected); details: Escherichia coli, 25922; alone; read-out: MIC of cefixime (CFM)
E. coli 2150 = assay: Broth microdilution MIC (strain enzymes: SHV-3, TEM-1); details: Escherichia coli, 2150; alone; read-out: MIC of cefixime (CFM)
K. pneumoniae 304487 = assay: Broth microdilution MIC (strain enzymes: SHV-12,TEM-1); details: Klebsiella pneumoniae, 304487; alone; read-out: MIC of cefixime (CFM)
K. pneumoniae 3151 = assay: Broth microdilution MIC (strain enzymes: SHV-12, TEM-1); details: Klebsiella pneumoniae, 3151; alone; read-out: MIC of cefixime (CFM)
E. coli SI-NO36 = assay: Broth microdilution MIC (strain enzymes: SHV-11, TEM-1); details: Escherichia coli, SINO36; alone; read-out: MIC of cefixime (CFM)
K. pneumoniae SI-KP NO30 = assay: Broth microdilution MIC (strain enzymes: TEM-26b, SHV-60, SHV-26); details: Klebsiella pneumoniae, SIKPNO30; alone; read-out: MIC of cefixime (CFM)
E. coli SI-V502 = assay: Broth microdilution MIC (strain enzymes: TEM-29, CTX-M15); details: Escherichia coli, SIV502; alone; read-out: MIC of cefixime (CFM)
K. pneumoniae KP 3 = assay: Broth microdilution MIC (strain enzymes: SHV-1, TEM-1); details: Klebsiella pneumoniae, KP3; alone; read-out: MIC of cefixime (CFM)
K. pneumoniae ESBL 7 #1 = assay: Broth microdilution MIC (strain enzymes: SHV-12, TEM-1); details: Klebsiella pneumoniae; alone; read-out: MIC of cefixime (CFM)
K. pneumoniae KI (KCl) = assay: Broth microdilution MIC (strain enzymes: TEM-10); details: Klebsiella pneumoniae; alone; read-out: MIC of cefixime (CFM)
K. pneumoniae KP 8 = assay: Broth microdilution MIC (strain enzymes: TEM-10, TEM-1, CTX-M15); details: Klebsiella pneumoniae, KP8; alone; read-out: MIC of cefixime (CFM)

With C=CC1=C(C(=O)O)N2C(=O)[C@@H](NC(=O)/C(=N\OCC(=O)O)c3csc(N)n3)[C@H]2SC1 [Cefixime, cefixime, reference compound] the MIC (K. pneumoniae 115468) was > 32 µg/mL, the MIC (K. pneumoniae 170375) was > 32 µg/mL and the MIC (K. pneumoniae ESBL 7 #2) was > 32 µg/mL. For the same molecule, the MIC (E. coli ESBL 4) was > 32 µg/mL, the MIC (E. coli SI-AIRT-4) was 0.5 µg/mL and the MIC (E. coli ESBL 2) was > 32 µg/mL. For the same molecule, the MIC (K. pneumoniae ESBL 8 #2) was > 32 µg/mL, the MIC (K. pneumoniae KP 4) was > 32 µg/mL and the MIC (K. pneumoniae 329633) was > 32 µg/mL. For the same molecule, the MIC (E. coli SI-M004) was > 32 µg/mL, the MIC (E. coli BAS 1) was > 32 µg/mL and the MIC (E. coli SI-LP377) was > 32 µg/mL. For the same molecule, the MIC (E. coli Si-FDL-GES) was 2 µg/mL, the MIC (E. coli 3174) was 0.5 µg/mL and the MIC (K. pneumoniae ESBL 10) was > 32 µg/mL. The MIC (K. pneumoniae BAA 1705) was > 32 µg/mL, the MIC (E. coli 1924) was 2 µg/mL and the MIC (K. pneumoniae KPN 508) was > 32 µg/mL. The MIC (E. coli 2806) was 32 µg/mL, the MIC50 ([1]; read-out: Cefixime MIC50) was > 32 µg/mL and the MIC90 ([1]; read-out: Cefixime MIC90) was > 32 µg/mL. For the same molecule, the MIC (E. coli ESBL 5) was > 32 µg/mL, the MIC (K. oxytoca 169219) was > 32 µg/mL and the MIC (K. pneumoniae ESBL 8 #1) was > 32 µg/mL. The MIC (K. oxytoca 496 #2) was 32 µg/mL, the MIC (K. pneumoniae 11/23 LF#2) was > 32 µg/mL and the MIC (K. oxytoca 176877) was > 32 µg/mL. The MIC (K. pneumoniae 153239) was 0.5 µg/mL, the MIC (K. pneumoniae 319478) was > 32 µg/mL and the MIC (E. coli SI-PBLII) was 1 µg/mL. For the same molecule, the MIC (E. coli 3327) was > 32 µg/mL, the MIC (E. coli 25922) was 1 µg/mL and the MIC (E. coli 2150) was > 32 µg/mL. For the same molecule, the MIC (K. pneumoniae 304487) was > 32 µg/mL, the MIC (K. pneumoniae 3151) was > 32 µg/mL and the MIC (E. coli SI-NO36) was 1 µg/mL. For the same molecule, the MIC (K. pneumoniae SI-KP NO30) was > 32 µg/mL, the MIC (E. coli SI-V502) was 2 µg/mL and the MIC (K. pneumoniae KP 3) was > 32 µg/mL. For the same molecule, the MIC (K. pneumoniae ESBL 7 #1) was > 32 µg/mL, the MIC (K. pneumoniae KI (KCl)) was 32 µg/mL and the MIC (K. pneumoniae KP 8) was > 32 µg/mL.
